# Results reported in US11773075B2, “Modulators of p97 AAA ATPase activity” (University of Pittsburgh—Of the Commonwealth System of …, priority 2017, dated 2023).
# Target: p97 (Homo sapiens, UniProt P55072)
# Test: BioMol Green ATPase assay
# Assay type: biochemical
# Conditions: 200 μM ATP, read-out: P97 Biomolgreen
# Source text: Biomol Green (Enzo) is a […] from a biochemical reaction. Because of its high sensitivity, the assay is suitable for monitoring enzyme activities at very early substrate conversions requiring very low amount of enzymes. […] The assay procedure used may be the same as in Zhang et al., “Altered cofactor regulation with disease-associated p97/VCP mutations,” Proc. Natl. Acad. Sci. USA, 112(14), E1705-E1714 (2015).
# The BioMol Green ATPase assay procedure used was that which was disclosed in Zhang, et al., “Altered cofactor regulation with disease-associated p97/VCP mutations,” Proc. Natl. Acad. Sci. USA, 112(14), E1705-E1714 (2015). The following Table IV provides relevant results. The compound number correlates to the numbered compounds in Table III. Compounds also show activity in a cell-based assay such as the ubiquitin assay (assay as described in, e.g., (1) Dantuma et al., “Short-lived green fluorescent proteins for quantifying ubiquitin/proteasome-dependent proteolysis in living cells,” Nat. Biotechnol. 2000, 18, 538-543; and (2) WO 2010003908).
# p97, sequence (P55072 whole entry): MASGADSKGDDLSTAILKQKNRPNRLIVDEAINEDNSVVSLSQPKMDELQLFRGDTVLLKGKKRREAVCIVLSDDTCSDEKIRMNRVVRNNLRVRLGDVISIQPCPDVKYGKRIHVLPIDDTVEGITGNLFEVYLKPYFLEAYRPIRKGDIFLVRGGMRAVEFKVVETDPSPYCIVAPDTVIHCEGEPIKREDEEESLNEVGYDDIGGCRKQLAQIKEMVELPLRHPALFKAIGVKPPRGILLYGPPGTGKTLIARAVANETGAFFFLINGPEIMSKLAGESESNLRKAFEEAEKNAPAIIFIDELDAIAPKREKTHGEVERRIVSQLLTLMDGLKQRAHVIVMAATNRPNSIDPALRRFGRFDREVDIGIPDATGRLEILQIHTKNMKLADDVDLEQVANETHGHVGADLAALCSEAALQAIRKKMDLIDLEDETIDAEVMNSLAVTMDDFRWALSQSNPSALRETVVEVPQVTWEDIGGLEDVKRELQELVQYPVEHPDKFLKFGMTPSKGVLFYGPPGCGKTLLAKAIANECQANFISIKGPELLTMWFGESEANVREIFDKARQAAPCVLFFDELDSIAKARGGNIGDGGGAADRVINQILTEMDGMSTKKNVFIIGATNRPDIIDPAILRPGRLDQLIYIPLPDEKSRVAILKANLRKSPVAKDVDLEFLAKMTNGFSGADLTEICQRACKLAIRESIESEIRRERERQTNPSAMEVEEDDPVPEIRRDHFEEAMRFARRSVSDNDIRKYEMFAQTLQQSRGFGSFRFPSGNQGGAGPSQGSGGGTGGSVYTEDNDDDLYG
row,SMILES,IC50 [µM]
1,"Cc1cc(OCc2cnc(SC3C=CCCC3)n2-c2cccnc2)ccc1C#CCO (stereo not shown) [Compound 1, 3-(4-((2-(Cyclohex-2-en-1-ylthio)-1-(pyridin-3-yl)-1H-imidazol-5-yl)methoxy)-2-methylphenyl)prop-2-yn-1-ol]",0.037
2,Cc1cc(OCc2cnc(SC3C=CCCC3)n2-c2cccnc2)ccc1C#CCOC(=O)NC1CCOCC1 (stereo not shown) [Compound 2],0.034
3,COCCNC(=O)OCC#Cc1ccc(OCc2cnc(SC3C=CCCC3)n2-c2cccnc2)cc1C (stereo not shown) [Compound 3],0.039
4,Cc1cc(OCc2cnc(SC3C=CCCC3)n2-c2cccnc2)ccc1C#CCOC(=O)NCCN1CCOCC1 (stereo not shown) [Compound 4],0.036
5,COCOCC#Cc1ccc(OCc2cnc(SC3C=CCCC3)n2-c2cccnc2)cc1C (stereo not shown) [Compound 6],0.1
6,COCCOCC#Cc1ccc(OCc2cnc(SC3C=CCCC3)n2-c2cccnc2)cc1C (stereo not shown) [Compound 7],0.11
7,"CC(=O)NCC#Cc1ccc(OCc2cnc(SC3C=CCCC3)n2-c2cccnc2)cc1C (stereo not shown) [Compound 8, N-(3-(4-((2-(Cyclohex-2-en-1-ylthio)-1-(pyridin-3-yl)-1H-imidazol-5-yl)methoxy)-2-methylphenyl)-prop-2-yn-1-yl)acetamide]",0.06
8,"Cc1cc(OCc2cnc(SC3C=CCCC3)n2-c2cccnc2)ccc1C#CCNC1CCN(C)CC1 (stereo not shown) [Compound 9, N-(3-(4-((2-(cyclohex-2-en-1-ylthio)-1-(pyridin-3-yl)-1H-imidazol-5-yl)methoxy)-2-methylphenyl)prop-2-yn-1-yl)-1-methylpiperidin-4-amine]",0.056
9,Cc1cc(OCc2cnc(SC3C=CCCC3)n2-c2cccnc2)ccc1C#CCNCCN(C)C (stereo not shown) [Compound 10],0.05
10,Cc1cc(OCc2cnc(SC3C=CCCC3)n2-c2cccnc2)ccc1C#CCOC(=O)NCCN1CCN(C)CC1 (stereo not shown) [Compound 11],0.02
11,Cc1cc(OCc2cnc(SC3C=CCCC3)n2-c2cccnc2)ccc1C#CCOC(=O)NC(C)C (stereo not shown) [Compound 14],0.027
12,Cc1cc(OCc2cnc(SC3C=CCCC3)n2-c2cccnc2)ccc1C#CCOC(=O)NC1CCN(C)CC1 (stereo not shown) [Compound 15],0.014
13,Cc1cc(OCc2c(Cl)nc(SC3C=CCCC3)n2-c2cccnc2)ccc1C#CCO (stereo not shown) [Compound 18],0.034
14,Cc1cc(OCc2c(Br)nc(SC3CC3)n2-c2cccnc2)ccc1C#CCOC(=O)N1CCN(C(C)C)CC1 [Compound 19],0.057
15,[2H]C1([2H])C([2H])([2H])C([2H])([2H])C([2H])(Sc2nc(Br)c(COc3ccc(C#CCOC(=O)NCCN4CCN(C(C)C)CC4)c(C)c3)n2-c2cccnc2)C1([2H])[2H] [Compound 21],0.017
16,Cc1cc(OCc2c(C#N)nc(SC3CCCC3)n2-c2cccnc2)ccc1C#CCO [Compound 22],0.06
17,Cc1cc(OCc2cnc(CC3CCCC3)n2-c2cccnc2)ccc1C#CCOC(=O)NC1CCN(C)CC1 [Compound 26],0.05
18,"Cc1cc(OCc2c(C(C)(C)O)nc(SC3CCCC3)n2-c2cccnc2)ccc1C#CCO [Compound 28, 3-(4-((2-(Cyclopentylthio)-4-(2-hydroxypropan-2-yl)-1-(pyridin-3-yl)-1H-imidazol-5-yl)methoxy)-2-methylphenyl)prop-2-yn-1-ol]",0.25
19,[2H]C1([2H])C([2H])([2H])C([2H])([2H])C([2H])(Sc2ncc(COc3ccc(-c4ccc(S(C)(=O)=O)cc4)c(C)c3)n2-c2cccnc2)C1([2H])[2H] [Compound 29],0.075
20,Cc1cc(OCc2cnc(SC3C=CCCC3)n2-c2cccnc2)ccc1-c1ccc(S(C)(=O)=O)cc1 (stereo not shown) [Compound 31],0.054
21,Cc1cc(OCc2c(Cl)nc(SC3C=CCCC3)n2-c2cccnc2)ccc1-c1ccc(S(C)(=O)=O)cc1 (stereo not shown) [Compound 32],0.037
22,Fc1cc(OCc2cnc(SC3C=CCCC3)n2-c2cccnc2)ccc1Br (stereo not shown) [Compound 33],0.13
23,[2H]C1([2H])C([2H])([2H])C([2H])([2H])C([2H])(Sc2ncc(COc3cc(F)c(C#CCOC(=O)NC4CCN(C)CC4)cc3F)n2-c2cccnc2)C1([2H])[2H] [Compound 35],0.008
24,CN1CCC(NC(=O)OCC#Cc2cc(F)c(OCc3cnc(SC4C=CCCC4)n3-c3cccnc3)cc2F)CC1 (stereo not shown) [Compound 36],0.011
25,[2H]C1([2H])C([2H])([2H])C([2H])([2H])C([2H])(Sc2ncc(COc3cc(F)c(C#CCO)cc3F)n2-c2cccnc2)C1([2H])[2H] [Compound 38],0.019
26,[2H]C1([2H])C([2H])([2H])C([2H])([2H])C([2H])(Sc2ncc(COc3cc(F)c(C#CCOC(=O)NC4CCN(C)CC4)c(F)c3)n2-c2cccnc2)C1([2H])[2H] [Compound 39],0.019
27,CC#Cc1nc(SC2CCCC2)n(-c2cccnc2)c1COc1cc(F)c(C#CCO)c(F)c1 [Compound 41],0.04
28,[2H]C1([2H])C([2H])([2H])C([2H])([2H])C([2H])(Sc2ncc(COc3cc(Cl)c(C#CCO)cc3Cl)n2-c2cccnc2)C1([2H])[2H] [Compound 45],0.2

# The next lines start with the values.
row,IC50 [µM],SMILES
1,0.1,Cc1cc(OCc2cnc(SC(C)C)n2-c2cccnc2)ccc1C#CCOC(=O)NCCN1CCN(C(C)C)CC1 [Compound 5]
2,0.05,Cc1cc(OCc2c(Br)nc(SC3C=CCCC3)n2-c2cccnc2)ccc1C#CCO (stereo not shown) [Compound 12]
3,0.032,Cc1cc(OCc2c(Br)nc(SC3C=CCCC3)n2-c2cccnc2)ccc1C#CCOC(=O)NCCN1CCN(C(C)C)CC1 (stereo not shown) [Compound 13]
4,> 6.7,"CCS(=O)(=O)c1ncc(COc2ccc(C#CCO)c(C)c2)n1-c1cccnc1 [Compound 16, 3-(4-((2-(Ethylsulfonyl)-1-(pyridin-3-yl)-1H-imidazol-5-yl)methoxy)-2-methylphenyl)prop-2-yn-1-ol]"
5,0.24,Cc1cc(OCc2cnc(SC3CC3)n2-c2cccnc2)ccc1C#CCO [Compound 17]
6,0.029,[2H]C1([2H])C([2H])([2H])C([2H])([2H])C([2H])(Sc2nc(Br)c(COc3ccc(C#CCO)c(C)c3)n2-c2cccnc2)C1([2H])[2H] [Compound 20]
7,0.03,"Cc1cc(OCc2c(C#CCO)nc(SC3CCCC3)n2-c2cccnc2)ccc1C#CCO [Compound 23, 3-(4-((2-(Cyclopentylthio)-4-(3-hydroxyprop-1-yn-1-yl)-1-(pyridin-3-yl)-1H-imidazol-5-yl)methoxy)-2-methylphenyl)prop-2-yn-1-ol]"
8,0.05,CCOC(=O)c1nc(SC2CCCC2)n(-c2cccnc2)c1COc1ccc(C#CCO)c(C)c1 [Compound 24]
9,0.05,Cc1cc(OCc2c(C(N)=O)nc(SC3CCCC3)n2-c2cccnc2)ccc1C#CCO [Compound 25]
10,0.11,"COC(=O)/C=C/c1nc(SC2CCCC2)n(-c2cccnc2)c1COc1ccc(C#CCO)c(C)c1 [Compound 27, Methyl (E)-3-(2-(cyclopentylthio)-5-((4-(3-hydroxyprop-1-yn-1-yl)-3-methylphenoxy)methyl)-1-(pyridin-3-yl)-1H-imidazol-4-yl)acrylate]"
11,0.066,Cc1cc(OCc2c(Br)nc(SC3C=CCCC3)n2-c2cccnc2)ccc1-c1ccc(S(C)(=O)=O)cc1 (stereo not shown) [Compound 30]
12,0.16,Cc1cc(OCc2cnc(SC3C=CCCC3)n2-c2cccnc2)ccc1Cl (stereo not shown) [Compound 34]
13,0.017,"[2H]C1([2H])C([2H])([2H])C([2H])([2H])C([2H])(Sc2ncc(COc3ccc(C#CCOC(=O)NC4CCN(C)CC4)c(F)c3)n2-c2cccnc2)C1([2H])[2H] [Compound 37, 3-(4-((2-((Cyclopentyl-d9)thio)-1-(pyridin-3-yl)-1H-imidazol-5-yl)methoxy)-2-fluorophenyl)prop-2-yn-1-yl (1-methylpiperidin-4-yl)carbamate]"
14,0.02,CC#Cc1nc(SC2CCCC2)n(-c2cccnc2)c1COc1cc(F)c(C#CCOC(=O)NC2CCN(C)CC2)c(F)c1 [Compound 40]
15,0.046,OCC#Cc1c(F)cc(OCc2c(Cl)nc(SC3C=CCCC3)n2-c2cccnc2)cc1F (stereo not shown) [Compound 42]
16,0.056,[2H]C1([2H])C([2H])([2H])C([2H])([2H])C([2H])(Sc2ncc(COc3cc(F)c(C#CCO)c(F)c3)n2-c2cccnc2)C1([2H])[2H] [Compound 43]
17,0.06,[2H]C1([2H])C([2H])([2H])C([2H])([2H])C([2H])(Sc2ncc(COc3cc(Cl)c(C#CCOC(=O)NC4CCN(C)CC4)cc3Cl)n2-c2cccnc2)C1([2H])[2H] [Compound 44]

# Tested on: not given
# Test: not given
# Conditions: not given
row,melting point [°C],SMILES
1,119 to 121,"Cc1cc(OCc2c(C(C)(C)O)nc(SC3CCCC3)n2-c2cccnc2)ccc1C#CCO [Compound 28, 3-(4-((2-(Cyclopentylthio)-4-(2-hydroxypropan-2-yl)-1-(pyridin-3-yl)-1H-imidazol-5-yl)methoxy)-2-methylphenyl)prop-2-yn-1-ol]"
